Test results: article PMC7939385, “Disease-associated mutations in inositol 1,4,5-trisphosphate receptor subunits impair channel function” (The Journal of Biological Chemistry, 2021)

Columns and labels:
WT mIP3R2 = biological target: T1, WT mIP3R2 (Mus musculus, UniProt Q9Z329); assay: [3H]IP3 binding on immunoprecipitated receptor; settings: 2.5 nM [3H]IP3 with 50 uM unlabelled IP3 for nonspecific binding; pH 8, 4 °C, 1 h; labelled compound
T1 construct: gene Itpr2; homotetramer

WT rIP3R1 [1] = biological target: T2, WT rIP3R1 (Rattus norvegicus, UniProt C7E1V2, N602D); assay: competitive [3H]IP3 radioligand binding on immunoprecipitated receptor
T2 construct: gene Itpr1; homotetramer, ~300 kDa subunit; Methods give NM_001270596, footnote NM_001007235

WT rIP3R1 [2] = biological target: T3, WT rIP3R1 (Rattus norvegicus, UniProt C7E1V2); assay: as above; settings: read-out: apparent EC50
T3 construct: gene Itpr1; homotetramer, ~300 kDa subunit; Methods give NM_001270596, footnote NM_001007235
Excerpt: competitive [3H]IP3 radioligand binding on immunoprecipitated receptor on WT rIP3R1 | the apparent EC50 for binding was not markedly altered under these conditions

T2 sequence (C7E1V2 1-2748 N602D): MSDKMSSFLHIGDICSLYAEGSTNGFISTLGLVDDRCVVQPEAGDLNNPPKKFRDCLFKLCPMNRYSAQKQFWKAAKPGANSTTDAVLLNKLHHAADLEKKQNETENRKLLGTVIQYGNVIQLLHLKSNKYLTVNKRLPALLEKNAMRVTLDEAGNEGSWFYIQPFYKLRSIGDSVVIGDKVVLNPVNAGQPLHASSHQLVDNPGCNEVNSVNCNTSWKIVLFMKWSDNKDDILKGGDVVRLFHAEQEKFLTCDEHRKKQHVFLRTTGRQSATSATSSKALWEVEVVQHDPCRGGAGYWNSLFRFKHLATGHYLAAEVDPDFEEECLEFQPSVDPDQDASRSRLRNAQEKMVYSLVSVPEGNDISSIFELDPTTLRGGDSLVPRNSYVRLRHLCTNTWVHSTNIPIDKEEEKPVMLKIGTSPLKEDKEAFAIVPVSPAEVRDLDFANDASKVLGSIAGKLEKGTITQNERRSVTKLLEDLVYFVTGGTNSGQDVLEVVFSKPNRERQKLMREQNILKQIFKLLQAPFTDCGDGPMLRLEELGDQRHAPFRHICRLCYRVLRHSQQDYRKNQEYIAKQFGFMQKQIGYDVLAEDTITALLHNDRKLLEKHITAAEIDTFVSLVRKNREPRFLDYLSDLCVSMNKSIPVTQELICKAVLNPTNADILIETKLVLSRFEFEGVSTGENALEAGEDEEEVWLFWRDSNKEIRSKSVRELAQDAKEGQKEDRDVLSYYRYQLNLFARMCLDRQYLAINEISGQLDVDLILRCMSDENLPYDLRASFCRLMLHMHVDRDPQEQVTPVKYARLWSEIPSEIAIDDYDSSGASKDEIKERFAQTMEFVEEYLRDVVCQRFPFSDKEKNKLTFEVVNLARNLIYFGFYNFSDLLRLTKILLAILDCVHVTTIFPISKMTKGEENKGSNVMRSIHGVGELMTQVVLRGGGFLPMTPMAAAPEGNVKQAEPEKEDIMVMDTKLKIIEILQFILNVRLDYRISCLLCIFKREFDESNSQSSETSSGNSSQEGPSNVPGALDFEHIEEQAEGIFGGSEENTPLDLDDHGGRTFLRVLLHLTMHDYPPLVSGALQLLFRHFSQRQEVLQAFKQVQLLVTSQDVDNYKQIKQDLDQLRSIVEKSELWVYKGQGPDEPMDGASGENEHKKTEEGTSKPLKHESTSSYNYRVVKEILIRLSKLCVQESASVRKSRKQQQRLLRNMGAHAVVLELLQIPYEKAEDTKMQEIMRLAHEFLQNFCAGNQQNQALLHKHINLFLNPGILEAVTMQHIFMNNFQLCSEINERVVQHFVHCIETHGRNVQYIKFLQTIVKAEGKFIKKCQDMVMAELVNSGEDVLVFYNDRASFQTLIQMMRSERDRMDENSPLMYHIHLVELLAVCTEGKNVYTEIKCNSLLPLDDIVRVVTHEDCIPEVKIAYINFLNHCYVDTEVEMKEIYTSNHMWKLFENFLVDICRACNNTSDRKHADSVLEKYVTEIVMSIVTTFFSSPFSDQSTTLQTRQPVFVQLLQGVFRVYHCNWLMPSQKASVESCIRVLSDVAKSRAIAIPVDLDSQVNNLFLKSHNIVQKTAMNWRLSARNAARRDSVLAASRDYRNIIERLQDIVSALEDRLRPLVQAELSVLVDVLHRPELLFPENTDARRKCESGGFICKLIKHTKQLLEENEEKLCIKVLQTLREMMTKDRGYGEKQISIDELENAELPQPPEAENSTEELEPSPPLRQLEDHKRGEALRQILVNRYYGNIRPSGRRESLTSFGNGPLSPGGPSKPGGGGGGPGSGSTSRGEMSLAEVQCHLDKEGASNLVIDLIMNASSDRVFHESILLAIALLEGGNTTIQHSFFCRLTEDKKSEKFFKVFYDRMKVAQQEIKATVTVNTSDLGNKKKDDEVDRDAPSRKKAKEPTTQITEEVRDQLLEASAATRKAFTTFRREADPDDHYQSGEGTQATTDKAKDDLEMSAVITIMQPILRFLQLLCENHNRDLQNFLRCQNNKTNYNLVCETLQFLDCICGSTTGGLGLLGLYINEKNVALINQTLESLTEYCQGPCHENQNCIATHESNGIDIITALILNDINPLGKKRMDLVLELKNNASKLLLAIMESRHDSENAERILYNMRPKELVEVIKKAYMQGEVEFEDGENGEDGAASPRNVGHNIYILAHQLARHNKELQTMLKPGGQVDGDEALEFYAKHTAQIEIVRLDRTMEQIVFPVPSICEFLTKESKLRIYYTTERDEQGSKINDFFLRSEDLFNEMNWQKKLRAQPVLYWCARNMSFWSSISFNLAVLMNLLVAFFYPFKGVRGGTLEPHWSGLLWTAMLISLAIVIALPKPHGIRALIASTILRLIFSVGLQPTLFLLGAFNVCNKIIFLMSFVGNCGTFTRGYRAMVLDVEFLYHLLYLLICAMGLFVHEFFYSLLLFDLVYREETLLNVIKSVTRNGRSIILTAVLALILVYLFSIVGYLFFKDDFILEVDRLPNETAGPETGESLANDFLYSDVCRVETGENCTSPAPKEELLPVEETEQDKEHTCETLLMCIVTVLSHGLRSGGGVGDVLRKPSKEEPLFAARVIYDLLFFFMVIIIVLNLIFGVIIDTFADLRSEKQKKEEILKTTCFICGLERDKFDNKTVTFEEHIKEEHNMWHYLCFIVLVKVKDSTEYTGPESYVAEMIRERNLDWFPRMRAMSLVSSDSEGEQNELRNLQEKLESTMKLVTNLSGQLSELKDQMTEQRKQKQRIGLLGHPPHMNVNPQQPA

EC50 (WT rIP3R1 [1]): 70.2 ± 1.6 nM | EC50 (WT rIP3R1 [2]): 45.7 ± 5.3 nM
SMILES: O=P(O)(O)O[C@@H]1[C@H](O)[C@H](O)[C@@H](OP(=O)(O)O)[C@H](OP(=O)(O)O)[C@H]1O [IP3]
[3H]IP3 binding on immunoprecipitated receptor (WT mIP3R2): IP3 binding to mIP3R2^GS was comparable with WT mIP3R2
